Measurements published in ChEMBL document CHEMBL5465560, “Selectivity Literature for EUbOPEN Chemogenomic Library” (2024).

What was measured:
[1] = biological target: Serine/threonine-protein kinase 16 (Homo sapiens, UniProt O75716); details: at 10 µM
[2] = biological target: Atypical kinase COQ8A, mitochondrial (Homo sapiens, UniProt Q8NI60); assay: Selectivity interaction (Ambit KINOMEscan and KiNATiv profiling in Jurkat cells) EUB0000090b ADCK3; assay type: cell-based; details: at 1 µM
[3] = biological target: T1, Mitogen-activated protein kinase kinase kinase 7 (Homo sapiens) (UniProt O43318); assay: Selectivity interaction (ActivX KiNativ screen (ex vivo kinase selectivity in human PBMCs)) EUB0001619a MAP3K7; assay type: cell-based; details: PBMC, at 1 µM
T1 sequence (whole entry): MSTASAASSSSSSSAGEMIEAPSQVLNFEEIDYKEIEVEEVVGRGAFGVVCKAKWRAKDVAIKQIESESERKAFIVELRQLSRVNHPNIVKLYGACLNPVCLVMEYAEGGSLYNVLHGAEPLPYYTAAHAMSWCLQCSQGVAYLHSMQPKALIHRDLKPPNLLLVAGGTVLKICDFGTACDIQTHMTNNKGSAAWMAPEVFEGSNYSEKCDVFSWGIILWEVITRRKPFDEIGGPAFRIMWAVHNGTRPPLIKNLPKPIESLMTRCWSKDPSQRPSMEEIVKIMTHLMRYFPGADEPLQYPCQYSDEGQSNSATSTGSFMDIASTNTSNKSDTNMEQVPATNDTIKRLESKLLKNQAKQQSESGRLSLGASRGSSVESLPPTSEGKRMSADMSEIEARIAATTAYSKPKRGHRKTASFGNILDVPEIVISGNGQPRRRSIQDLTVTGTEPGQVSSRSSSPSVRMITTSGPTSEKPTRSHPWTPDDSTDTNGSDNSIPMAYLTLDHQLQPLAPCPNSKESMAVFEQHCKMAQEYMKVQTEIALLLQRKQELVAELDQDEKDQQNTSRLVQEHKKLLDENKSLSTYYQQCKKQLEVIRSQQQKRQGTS

[4] = biological target: T2, Inhibitor of nuclear factor kappa-B kinase subunit epsilon (Homo sapiens) (UniProt Q14164); assay: Selectivity interaction (Kinase panel (Invitrogen)) EUB0000639a IKBKE; details: at 200 nM
T2 sequence (whole entry): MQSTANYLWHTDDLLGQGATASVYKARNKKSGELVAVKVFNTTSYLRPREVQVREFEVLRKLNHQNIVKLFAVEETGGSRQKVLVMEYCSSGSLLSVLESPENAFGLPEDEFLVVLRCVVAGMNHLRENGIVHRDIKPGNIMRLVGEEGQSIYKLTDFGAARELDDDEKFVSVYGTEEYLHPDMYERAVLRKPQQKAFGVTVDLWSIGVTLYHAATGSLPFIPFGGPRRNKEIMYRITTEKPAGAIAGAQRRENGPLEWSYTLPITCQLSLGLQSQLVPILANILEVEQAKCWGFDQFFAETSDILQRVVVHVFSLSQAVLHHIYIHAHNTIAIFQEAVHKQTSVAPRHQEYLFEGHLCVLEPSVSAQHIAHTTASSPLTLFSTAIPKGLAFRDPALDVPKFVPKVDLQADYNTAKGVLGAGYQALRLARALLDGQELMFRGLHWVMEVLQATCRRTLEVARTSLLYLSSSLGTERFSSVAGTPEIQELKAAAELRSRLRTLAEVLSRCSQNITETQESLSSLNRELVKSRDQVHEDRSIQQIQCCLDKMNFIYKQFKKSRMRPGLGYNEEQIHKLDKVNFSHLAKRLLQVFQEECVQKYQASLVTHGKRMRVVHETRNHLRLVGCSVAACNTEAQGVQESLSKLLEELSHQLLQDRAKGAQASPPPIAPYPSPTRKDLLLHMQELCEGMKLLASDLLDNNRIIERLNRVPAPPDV

[5] = biological target: T3, Dual specificity mitogen-activated protein kinase kinase 3 (Homo sapiens) (UniProt P46734); assay: Selectivity interaction (KinomeScan (DiscoverX)) EUB0000229b MAP2K3; details: at 10 µM
T3 sequence (whole entry): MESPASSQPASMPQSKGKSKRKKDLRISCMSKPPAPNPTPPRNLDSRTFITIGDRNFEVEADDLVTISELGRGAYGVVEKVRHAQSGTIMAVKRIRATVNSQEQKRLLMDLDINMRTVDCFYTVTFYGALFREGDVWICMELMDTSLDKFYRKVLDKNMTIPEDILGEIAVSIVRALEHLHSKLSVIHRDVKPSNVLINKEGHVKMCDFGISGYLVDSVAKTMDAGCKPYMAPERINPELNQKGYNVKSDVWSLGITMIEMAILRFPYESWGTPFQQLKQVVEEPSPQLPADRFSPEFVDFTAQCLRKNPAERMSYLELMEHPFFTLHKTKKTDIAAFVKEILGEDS

[6] = biological target: Homeodomain-interacting protein kinase 2 (Homo sapiens, UniProt Q9H2X6); assay: Selectivity interaction (ProQinase) EUB0000171b HIPK2
[7] = biological target: T4, Serine/threonine-protein kinase DCLK3 (Homo sapiens) (UniProt Q9C098); assay: Selectivity interaction (KinomeScan (DiscoverX)) EUB0001049a DCLK3; details: at 1 µM
T4 sequence (whole entry): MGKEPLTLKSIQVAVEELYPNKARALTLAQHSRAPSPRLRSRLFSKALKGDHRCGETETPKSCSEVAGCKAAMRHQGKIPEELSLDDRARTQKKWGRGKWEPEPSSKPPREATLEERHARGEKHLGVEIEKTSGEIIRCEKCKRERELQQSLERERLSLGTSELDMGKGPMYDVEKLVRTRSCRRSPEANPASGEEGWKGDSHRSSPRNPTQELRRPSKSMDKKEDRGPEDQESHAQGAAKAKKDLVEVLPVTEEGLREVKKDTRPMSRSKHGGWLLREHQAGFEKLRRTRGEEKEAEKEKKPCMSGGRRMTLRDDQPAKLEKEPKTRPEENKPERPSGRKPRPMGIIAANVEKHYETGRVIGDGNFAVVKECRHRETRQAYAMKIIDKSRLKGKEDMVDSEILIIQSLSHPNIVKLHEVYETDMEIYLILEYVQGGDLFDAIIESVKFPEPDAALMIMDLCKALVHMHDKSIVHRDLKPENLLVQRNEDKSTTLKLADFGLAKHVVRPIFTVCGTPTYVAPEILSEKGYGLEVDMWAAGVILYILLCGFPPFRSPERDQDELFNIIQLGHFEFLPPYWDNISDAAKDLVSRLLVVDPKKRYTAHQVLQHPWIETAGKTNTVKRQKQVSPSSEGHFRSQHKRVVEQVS

[8] = biological target: Ribosomal protein S6 kinase alpha-6 (Homo sapiens, UniProt Q9UK32); assay: Selectivity interaction (KinomeScan (DiscoverX)) EUB0000666a RPS6KA6; details: at 10 µM
[9] = biological target: Maternal embryonic leucine zipper kinase (Homo sapiens) (UniProt Q14680); assay: Selectivity interaction (Kinase panel (Z-LYTE Assay)) EUB0001632a MELK; details: at 10 µM
[10] = biological target: Dual specificity tyrosine-phosphorylation-regulated kinase 1A (Homo sapiens, UniProt Q13627); assay: Selectivity interaction (Kinase screening (Nanosyn)) EUB0000604a DYRK1A
[11] = biological target: Serine/threonine-protein kinase MRCK alpha (Homo sapiens) (UniProt Q5VT25); assay: Selectivity interaction (KinomeScan (DiscoverX)) EUB0000695a CDC42BPA; details: at 100 nM
Serine/threonine-protein kinase MRCK alpha (Homo sapiens), sequence (Q5VT25 whole entry): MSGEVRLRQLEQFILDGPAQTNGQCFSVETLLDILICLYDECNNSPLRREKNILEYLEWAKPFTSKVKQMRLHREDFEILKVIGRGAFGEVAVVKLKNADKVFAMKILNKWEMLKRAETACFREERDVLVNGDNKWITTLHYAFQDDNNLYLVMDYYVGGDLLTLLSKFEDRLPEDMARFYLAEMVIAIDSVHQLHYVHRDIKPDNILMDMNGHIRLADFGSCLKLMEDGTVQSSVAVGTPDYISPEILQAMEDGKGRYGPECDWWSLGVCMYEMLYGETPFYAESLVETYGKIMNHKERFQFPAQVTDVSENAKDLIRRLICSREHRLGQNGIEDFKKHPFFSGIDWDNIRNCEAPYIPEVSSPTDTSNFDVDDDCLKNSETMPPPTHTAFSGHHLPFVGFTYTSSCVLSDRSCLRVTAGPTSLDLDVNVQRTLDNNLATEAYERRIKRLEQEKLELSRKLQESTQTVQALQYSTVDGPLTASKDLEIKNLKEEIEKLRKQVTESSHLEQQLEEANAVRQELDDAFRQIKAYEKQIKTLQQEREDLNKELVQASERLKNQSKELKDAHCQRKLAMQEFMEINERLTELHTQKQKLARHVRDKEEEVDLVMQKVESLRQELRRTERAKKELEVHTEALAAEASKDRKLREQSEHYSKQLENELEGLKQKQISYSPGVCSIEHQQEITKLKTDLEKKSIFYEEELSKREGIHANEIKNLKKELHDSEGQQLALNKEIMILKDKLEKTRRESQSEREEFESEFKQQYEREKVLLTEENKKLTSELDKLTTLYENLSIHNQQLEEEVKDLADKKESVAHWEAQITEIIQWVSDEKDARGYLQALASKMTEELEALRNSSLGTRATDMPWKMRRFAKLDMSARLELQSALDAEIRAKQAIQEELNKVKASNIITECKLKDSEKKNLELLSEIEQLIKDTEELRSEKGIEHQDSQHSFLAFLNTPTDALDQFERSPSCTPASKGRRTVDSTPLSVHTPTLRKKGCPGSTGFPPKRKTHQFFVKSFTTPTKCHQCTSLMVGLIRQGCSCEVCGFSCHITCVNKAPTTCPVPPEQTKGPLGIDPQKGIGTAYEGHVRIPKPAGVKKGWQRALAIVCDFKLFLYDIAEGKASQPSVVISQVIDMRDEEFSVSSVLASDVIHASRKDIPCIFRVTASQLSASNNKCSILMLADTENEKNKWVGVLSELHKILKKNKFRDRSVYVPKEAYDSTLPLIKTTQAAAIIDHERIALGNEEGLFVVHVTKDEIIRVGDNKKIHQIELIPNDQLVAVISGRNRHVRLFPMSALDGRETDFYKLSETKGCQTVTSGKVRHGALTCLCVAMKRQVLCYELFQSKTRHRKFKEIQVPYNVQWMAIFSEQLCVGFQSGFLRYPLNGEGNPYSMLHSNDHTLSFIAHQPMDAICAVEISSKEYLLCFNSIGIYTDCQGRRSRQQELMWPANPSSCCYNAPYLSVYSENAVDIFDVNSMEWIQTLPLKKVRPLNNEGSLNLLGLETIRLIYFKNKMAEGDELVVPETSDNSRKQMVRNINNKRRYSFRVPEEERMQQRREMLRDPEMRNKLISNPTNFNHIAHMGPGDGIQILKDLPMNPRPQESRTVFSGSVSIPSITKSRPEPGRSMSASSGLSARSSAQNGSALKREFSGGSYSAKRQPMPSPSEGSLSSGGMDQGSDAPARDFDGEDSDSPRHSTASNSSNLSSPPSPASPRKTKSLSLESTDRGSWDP

Homeodomain-interacting protein kinase 2, sequence (Q9H2X6 whole entry, looked up): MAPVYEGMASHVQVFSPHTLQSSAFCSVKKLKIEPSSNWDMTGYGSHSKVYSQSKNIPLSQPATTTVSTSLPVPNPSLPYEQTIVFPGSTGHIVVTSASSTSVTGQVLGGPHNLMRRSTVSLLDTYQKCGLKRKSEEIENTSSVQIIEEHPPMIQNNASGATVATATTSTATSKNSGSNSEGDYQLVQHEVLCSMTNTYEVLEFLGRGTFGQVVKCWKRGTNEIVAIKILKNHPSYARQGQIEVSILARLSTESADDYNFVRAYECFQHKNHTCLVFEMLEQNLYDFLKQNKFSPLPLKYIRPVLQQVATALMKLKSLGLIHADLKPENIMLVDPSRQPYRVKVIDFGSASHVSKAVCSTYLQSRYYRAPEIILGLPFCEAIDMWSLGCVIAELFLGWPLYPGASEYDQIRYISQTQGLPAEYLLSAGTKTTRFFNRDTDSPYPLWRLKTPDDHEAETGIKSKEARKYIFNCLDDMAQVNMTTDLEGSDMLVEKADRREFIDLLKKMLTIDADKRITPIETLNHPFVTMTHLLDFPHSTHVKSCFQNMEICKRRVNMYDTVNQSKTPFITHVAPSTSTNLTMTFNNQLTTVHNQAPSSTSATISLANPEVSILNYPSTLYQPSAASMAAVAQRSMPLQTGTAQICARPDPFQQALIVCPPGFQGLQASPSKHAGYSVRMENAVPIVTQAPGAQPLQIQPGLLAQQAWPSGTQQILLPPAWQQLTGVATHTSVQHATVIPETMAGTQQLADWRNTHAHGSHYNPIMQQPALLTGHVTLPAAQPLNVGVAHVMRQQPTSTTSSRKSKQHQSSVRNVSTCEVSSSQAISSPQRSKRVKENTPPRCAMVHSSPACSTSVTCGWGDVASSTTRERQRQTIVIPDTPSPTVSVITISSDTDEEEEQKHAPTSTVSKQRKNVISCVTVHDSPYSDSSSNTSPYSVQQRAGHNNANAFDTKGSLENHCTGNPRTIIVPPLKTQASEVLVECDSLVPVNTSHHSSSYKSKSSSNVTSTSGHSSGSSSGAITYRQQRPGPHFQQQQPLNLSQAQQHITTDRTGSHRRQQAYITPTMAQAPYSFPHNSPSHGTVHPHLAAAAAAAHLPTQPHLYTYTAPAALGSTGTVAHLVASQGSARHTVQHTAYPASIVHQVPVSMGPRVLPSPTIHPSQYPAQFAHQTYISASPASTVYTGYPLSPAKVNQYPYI
Ribosomal protein S6 kinase alpha-6, sequence (Q9UK32 whole entry): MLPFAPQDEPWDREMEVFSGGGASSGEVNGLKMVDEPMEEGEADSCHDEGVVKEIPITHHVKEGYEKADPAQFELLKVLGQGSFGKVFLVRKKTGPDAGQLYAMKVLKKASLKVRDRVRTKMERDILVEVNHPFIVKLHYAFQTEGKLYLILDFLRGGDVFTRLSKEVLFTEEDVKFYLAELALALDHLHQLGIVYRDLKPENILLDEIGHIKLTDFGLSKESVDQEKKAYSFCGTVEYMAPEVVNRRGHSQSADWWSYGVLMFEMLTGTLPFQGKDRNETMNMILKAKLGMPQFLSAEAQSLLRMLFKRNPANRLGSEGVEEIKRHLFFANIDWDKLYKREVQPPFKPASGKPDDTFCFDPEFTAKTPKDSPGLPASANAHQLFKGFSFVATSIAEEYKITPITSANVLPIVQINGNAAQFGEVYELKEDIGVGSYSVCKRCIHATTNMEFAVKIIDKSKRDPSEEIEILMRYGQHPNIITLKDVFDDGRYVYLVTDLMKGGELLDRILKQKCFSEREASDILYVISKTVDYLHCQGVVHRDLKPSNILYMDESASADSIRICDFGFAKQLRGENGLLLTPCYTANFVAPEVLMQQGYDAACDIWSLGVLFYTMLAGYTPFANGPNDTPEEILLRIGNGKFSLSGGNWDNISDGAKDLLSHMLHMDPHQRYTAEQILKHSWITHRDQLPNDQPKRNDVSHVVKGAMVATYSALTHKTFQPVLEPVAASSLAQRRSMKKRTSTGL
Serine/threonine-protein kinase 16, sequence (O75716 whole entry): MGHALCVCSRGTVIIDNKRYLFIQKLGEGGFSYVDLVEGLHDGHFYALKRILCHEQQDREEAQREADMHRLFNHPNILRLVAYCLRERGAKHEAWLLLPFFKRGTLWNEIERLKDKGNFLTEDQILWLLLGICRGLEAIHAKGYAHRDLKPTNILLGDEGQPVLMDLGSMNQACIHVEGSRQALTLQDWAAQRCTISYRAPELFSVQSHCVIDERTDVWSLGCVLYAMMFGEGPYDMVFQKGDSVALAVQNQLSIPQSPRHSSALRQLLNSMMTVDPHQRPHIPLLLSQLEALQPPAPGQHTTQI
Maternal embryonic leucine zipper kinase (Homo sapiens), sequence (Q14680 whole entry, looked up): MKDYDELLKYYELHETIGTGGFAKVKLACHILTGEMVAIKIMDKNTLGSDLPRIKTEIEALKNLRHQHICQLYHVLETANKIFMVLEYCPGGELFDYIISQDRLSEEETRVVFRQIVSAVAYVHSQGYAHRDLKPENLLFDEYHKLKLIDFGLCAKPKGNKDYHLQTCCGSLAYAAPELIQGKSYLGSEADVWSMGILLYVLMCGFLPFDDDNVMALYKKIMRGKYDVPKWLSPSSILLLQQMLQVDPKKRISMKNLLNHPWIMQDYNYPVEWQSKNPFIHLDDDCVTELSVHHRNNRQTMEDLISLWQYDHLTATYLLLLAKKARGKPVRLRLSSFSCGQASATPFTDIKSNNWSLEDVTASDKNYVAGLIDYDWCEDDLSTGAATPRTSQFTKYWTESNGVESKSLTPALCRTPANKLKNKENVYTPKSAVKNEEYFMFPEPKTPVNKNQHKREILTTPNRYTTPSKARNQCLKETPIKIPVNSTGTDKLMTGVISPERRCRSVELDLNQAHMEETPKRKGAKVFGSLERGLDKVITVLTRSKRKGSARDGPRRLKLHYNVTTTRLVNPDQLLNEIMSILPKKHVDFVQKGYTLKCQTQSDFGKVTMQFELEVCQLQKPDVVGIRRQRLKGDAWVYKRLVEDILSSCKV

Question: `CCN(CC)CCCCNc1ncc2cc(-c3cc(OC)cc(OC)c3)c(NC(=O)NC(C)(C)C)nc2n1` was tested. Which % of control [1] did it give?
Answer: The % of control was 100%.

Question: Which % of control [2] does the source give for `CN(C)C/C=C/C(=O)Nc1ccc(C(=O)N2CCCC(Nc3ncc(Cl)c(-c4c[nH]c5ccccc45)n3)C2)cc1` (configuration not stated) here?
Answer: Its % of control is 90%.

Question: With `N#Cc1cccc(-c2c[nH]c3ncnc(N4CCOCC4)c23)c1` as the compound, how does the % of inhibition [3] read?
Answer: The % of inhibition was 8%.

Question: `CC[C@@H]1[C@H](F)C(=O)N[C@@H]1COc1nccc2cc(C(N)=O)c(OC)cc12` [ZIMLOVISERTIB] was tested. Which % of inhibition [4] did it give?
Answer: Its % of inhibition is 2.32%.

Question: How did the % binding [5] turn out when `COc1cc(N(C)c2ccnc3ccc(C(F)(F)F)cc23)cc(OC)c1OC` was run?
Answer: Its % binding is 72%.

Question: How did the % of control ([6]; at 1 µM) turn out when `C=CC(=O)Nc1cccc(C(=O)Nc2ccc(Nc3cc(-c4[nH]c(SC)nc4C)ccn3)cc2)c1` was run?
Answer: Its % of control is 100%.

Question: What about the % of control ([6]; at 5 µM) of the same compound?
Answer: Its % of control is 87%.

Question: With `COc1cc(Nc2nc(C)cc(-c3cnn4nc(OC)ccc34)n2)cc(C(F)(F)F)c1` as the compound, how does the % of control [7] read?
Answer: The % of control was 100%.

Question: For `O=C(NOC[C@H](O)CO)c1ccc(F)c(F)c1Nc1ccc(I)cc1F`, which % of control [8] is on record?
Answer: The % of control was 80%.

Question: Which % of control [9] does the source give for `Cn1cc(-n2cnc3c(NCc4nc5cc(Cl)c(Cl)cc5[nH]4)nc(N4CCOCC4)nc32)cn1` here?
Answer: Its % of control is 26.9%.

Question: For `Cc1cnc(Nc2ccc(F)cc2Cl)nc1-c1c[nH]c(C(=O)N[C@H](CO)c2cccc(Cl)c2)c1`, which % of inhibition [10] is on record?
Answer: Its % of inhibition is 3%.

Question: `Cc1cc(F)c(C(=O)Nc2cccc(-c3nncn3C(C)C)n2)cc1-n1cnc(C2CC2)c1` was tested. Which % of control [11] did it give?
Answer: Its % of control is 100%.
